Laboratory results as given in ChEMBL document CHEMBL1144527 (Bioorg Med Chem, 2007).

How the values were obtained:
[1] = biological target: T1, Prostaglandin G/H synthase 2 (Ovis aries, UniProt P79208); assay: Inhibition of ovine COX2 by enzyme immunoassay
T1 sequence (P79208 whole entry): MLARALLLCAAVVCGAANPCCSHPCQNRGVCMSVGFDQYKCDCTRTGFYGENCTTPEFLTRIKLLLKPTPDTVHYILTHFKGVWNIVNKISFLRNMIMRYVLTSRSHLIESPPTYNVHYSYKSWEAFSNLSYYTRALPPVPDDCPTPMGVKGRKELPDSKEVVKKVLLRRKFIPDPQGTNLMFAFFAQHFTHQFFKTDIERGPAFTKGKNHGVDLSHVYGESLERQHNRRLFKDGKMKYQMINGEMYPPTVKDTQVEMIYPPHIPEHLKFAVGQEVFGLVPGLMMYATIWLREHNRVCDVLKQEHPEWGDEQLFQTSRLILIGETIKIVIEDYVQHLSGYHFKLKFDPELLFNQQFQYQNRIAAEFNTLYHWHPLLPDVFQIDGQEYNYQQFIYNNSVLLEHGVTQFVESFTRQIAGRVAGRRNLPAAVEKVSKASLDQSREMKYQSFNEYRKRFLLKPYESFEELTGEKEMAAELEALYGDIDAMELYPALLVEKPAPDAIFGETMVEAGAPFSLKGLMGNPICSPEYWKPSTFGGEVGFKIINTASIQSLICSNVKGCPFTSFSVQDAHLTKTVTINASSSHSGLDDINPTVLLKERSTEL

[2] = species on record: Ovis aries; assay: Selectivity index, ratio of IC50 for ovine COX1 to IC50 for ovine COX2
[3] = biological target: T2, Prostaglandin G/H synthase 1 (Ovis aries, UniProt P05979); assay: Inhibition of ovine COX1 by enzyme immunoassay
T2 sequence (P05979 whole entry): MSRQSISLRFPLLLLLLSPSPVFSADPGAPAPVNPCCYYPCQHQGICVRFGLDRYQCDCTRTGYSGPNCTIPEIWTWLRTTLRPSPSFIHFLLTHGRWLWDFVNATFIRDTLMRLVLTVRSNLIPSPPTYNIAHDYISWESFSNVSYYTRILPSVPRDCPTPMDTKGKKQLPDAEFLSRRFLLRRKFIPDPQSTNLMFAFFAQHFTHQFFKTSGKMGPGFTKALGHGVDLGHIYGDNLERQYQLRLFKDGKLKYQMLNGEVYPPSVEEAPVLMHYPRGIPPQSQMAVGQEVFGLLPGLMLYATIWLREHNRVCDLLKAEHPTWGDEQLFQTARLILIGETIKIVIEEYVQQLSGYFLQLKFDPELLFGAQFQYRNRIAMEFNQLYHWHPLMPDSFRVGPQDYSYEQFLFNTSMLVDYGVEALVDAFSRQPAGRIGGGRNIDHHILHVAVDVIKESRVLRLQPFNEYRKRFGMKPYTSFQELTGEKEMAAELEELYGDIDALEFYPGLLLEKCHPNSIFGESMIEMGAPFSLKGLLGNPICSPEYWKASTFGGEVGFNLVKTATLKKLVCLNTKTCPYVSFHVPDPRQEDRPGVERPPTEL

Question: Which results are given for `CS(=O)(=O)Nc1ccc(C2=C(c3ccc(F)cc3)C(=O)OC2)cc1`?
Answer: IC50 [1]: 3200 nM; COX1/COX2 IC50 selectivity index [2]: 3.1; IC50 [3]: 10 µM

Question: Which results are given for `COc1ccc(C2=C(c3ccc(NS(C)(=O)=O)cc3)COC2=O)cc1`?
Answer: IC50 [1]: 31500 nM; COX1/COX2 IC50 selectivity index [2]: > 31; IC50 [3]: > 100 µM

Question: Which results are given for `CS(=O)(=O)Nc1ccc(C2=C(c3ccc(Br)cc3)C(=O)OC2)cc1`?
Answer: IC50 [1]: 3200 nM; COX1/COX2 IC50 selectivity index [2]: 11.1; IC50 [3]: 35.5 µM

Question: How did the IC50 [1] turn out when `CS(=O)(=O)Nc1ccc(C2=C(c3ccccc3)C(=O)OC2)cc1` was run?
Answer: 1700 nM

Question: What about the COX1/COX2 IC50 selectivity index [2] of the same compound?
Answer: 18.5

Question: What about the IC50 [3] of the same compound?
Answer: 31.6 µM

Question: How did the IC50 [1] turn out when `Cc1ccc(C2=C(c3ccc(NS(C)(=O)=O)cc3)COC2=O)cc1` was run?
Answer: 900 nM

Question: And the COX1/COX2 IC50 selectivity index [2]?
Answer: > 111

Question: And the IC50 [3]?
Answer: > 100 µM

Question: How did the IC50 [1] turn out when `CS(=O)(=O)Nc1ccc(C2=C(c3ccc(Cl)cc3)C(=O)OC2)cc1` was run?
Answer: 800 nM

Question: And the COX1/COX2 IC50 selectivity index [2]?
Answer: 39.4

Question: What about the IC50 [3] of the same compound?
Answer: 31.5 µM
